Reference: article PMC3814616, “BRAF inhibitors suppress apoptosis through off-target inhibition of JNK signaling” (eLife, 2013)
“Also recorded” adds a separate entry of the source.

How the values were obtained:
SRB1 cells = assay: UV-induced apoptosis, FACS Annexin V+, TMRE-low; format: cell-based, human; settings: 1 kJ/m^2 UVB, 1 μM, 24 hr, vs DMSO
SRB12 cells = assay: UV-induced apoptosis, FACS Annexin V+, TMRE-low; format: cell-based, human; settings: 1 kJ/m^2 UVB, 1 μM, 24 hr, vs DMSO
[1] = system: cSCC (SRB1, SRB12, COLO16) and HaCaT cell lines; assay: Long-term proliferation (serial passage and counting, at least 28 days); format: cell-based, human
phospho-JNK = assay: Western blot, UV-induced phospho-JNK in cSCC and HaCaT cell lines; format: cell-based, human; settings: 1 μM, post-radiation
[2] = system: E1A and HRAS^G12V-transformed wild-type (WT) MEFs; assay: Soft agar colony formation; format: cell-based, mouse; settings: 0.2 μM and 1.0 μM, 4–6 weeks
[3] = system: A375 and WM35 BRAF^V600E melanoma cell lines; assay: Growth of BRAF^V600E melanoma cell lines; format: cell-based, human; settings: bioequivalent doses: dabrafenib 0.05 μM, PLX4720 1.0 μM
MST1 (STK4) = molecular target: T1, MST1 (STK4) (Homo sapiens, UniProt Q13043); design: method as in Tsai et al., 2008; settings: ref Tsai et al., 2008; read-out: Published biochemical IC50; cited from earlier work
T1 construct: purchased KINOMEscan (DiscoveRx), San Diego, CA
T1 sequence (Q13043 1-487): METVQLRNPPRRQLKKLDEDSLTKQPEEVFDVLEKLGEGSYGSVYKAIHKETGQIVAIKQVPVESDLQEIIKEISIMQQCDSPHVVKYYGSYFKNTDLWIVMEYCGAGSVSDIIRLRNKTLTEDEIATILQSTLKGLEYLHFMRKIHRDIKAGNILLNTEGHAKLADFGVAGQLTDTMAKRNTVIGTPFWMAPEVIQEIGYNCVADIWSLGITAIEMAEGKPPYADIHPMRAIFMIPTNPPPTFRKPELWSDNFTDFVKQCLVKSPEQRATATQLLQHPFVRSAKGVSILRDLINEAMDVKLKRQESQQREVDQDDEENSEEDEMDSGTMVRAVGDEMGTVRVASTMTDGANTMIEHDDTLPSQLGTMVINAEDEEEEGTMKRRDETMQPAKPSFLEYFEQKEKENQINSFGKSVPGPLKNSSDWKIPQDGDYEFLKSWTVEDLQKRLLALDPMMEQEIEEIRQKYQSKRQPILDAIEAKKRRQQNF

A375 melanoma cell line = settings: ref Tsai et al., 2008; cited from earlier work
human full-length ZAK = molecular target: T2, human full-length ZAK (Homo sapiens, UniProt Q9NYL2); assay: In vitro kinase assay (Reaction Biology); format: biochemical
T2 construct: In vitro kinase assays were performed using human full-length ZAK; purchased Reaction Biology
T2 sequence (Q9NYL2 1-455 isoform Q9NYL2-2): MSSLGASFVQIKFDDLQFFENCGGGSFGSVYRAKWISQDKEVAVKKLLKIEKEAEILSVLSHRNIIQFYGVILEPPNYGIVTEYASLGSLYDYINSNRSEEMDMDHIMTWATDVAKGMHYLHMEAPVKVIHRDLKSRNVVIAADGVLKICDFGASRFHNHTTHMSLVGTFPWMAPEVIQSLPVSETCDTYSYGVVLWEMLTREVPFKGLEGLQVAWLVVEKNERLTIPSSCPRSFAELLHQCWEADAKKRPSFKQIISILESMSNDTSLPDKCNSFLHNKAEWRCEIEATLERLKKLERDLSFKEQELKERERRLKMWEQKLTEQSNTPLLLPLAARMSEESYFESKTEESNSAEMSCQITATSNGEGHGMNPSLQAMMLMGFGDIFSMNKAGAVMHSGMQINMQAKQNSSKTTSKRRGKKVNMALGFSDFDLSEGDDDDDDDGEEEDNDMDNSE

FGR = molecular target: T3, FGR (Homo sapiens, UniProt P09769); design: method as in Bollag et al., 2010; settings: ref Bollag et al., 2010; read-out: Published biochemical IC50; cited from earlier work
T3 construct: purchased KINOMEscan (DiscoveRx), San Diego, CA
T3 sequence (P09769 whole entry): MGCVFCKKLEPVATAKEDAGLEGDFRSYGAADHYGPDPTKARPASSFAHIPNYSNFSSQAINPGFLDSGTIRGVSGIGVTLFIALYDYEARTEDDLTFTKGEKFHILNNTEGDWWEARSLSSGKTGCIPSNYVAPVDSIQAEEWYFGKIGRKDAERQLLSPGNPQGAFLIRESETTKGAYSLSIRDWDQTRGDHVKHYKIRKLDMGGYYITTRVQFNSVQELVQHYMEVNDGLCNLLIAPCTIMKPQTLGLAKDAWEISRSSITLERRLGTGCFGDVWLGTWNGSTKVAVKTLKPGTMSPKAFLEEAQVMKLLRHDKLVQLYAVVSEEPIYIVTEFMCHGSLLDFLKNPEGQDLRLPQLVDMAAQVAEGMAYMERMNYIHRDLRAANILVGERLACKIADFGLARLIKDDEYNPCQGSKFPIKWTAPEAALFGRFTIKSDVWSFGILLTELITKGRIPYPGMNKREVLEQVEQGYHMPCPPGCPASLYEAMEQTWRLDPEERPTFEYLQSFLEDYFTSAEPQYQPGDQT

MINK (MINK1) = molecular target: T4, MINK (MINK1) (Homo sapiens, UniProt Q8N4C8); design: method as in Bollag et al., 2010; settings: ref Bollag et al., 2010; read-out: Published biochemical IC50; cited from earlier work
T4 construct: purchased KINOMEscan (DiscoveRx), San Diego, CA
T4 sequence (Q8N4C8 whole entry): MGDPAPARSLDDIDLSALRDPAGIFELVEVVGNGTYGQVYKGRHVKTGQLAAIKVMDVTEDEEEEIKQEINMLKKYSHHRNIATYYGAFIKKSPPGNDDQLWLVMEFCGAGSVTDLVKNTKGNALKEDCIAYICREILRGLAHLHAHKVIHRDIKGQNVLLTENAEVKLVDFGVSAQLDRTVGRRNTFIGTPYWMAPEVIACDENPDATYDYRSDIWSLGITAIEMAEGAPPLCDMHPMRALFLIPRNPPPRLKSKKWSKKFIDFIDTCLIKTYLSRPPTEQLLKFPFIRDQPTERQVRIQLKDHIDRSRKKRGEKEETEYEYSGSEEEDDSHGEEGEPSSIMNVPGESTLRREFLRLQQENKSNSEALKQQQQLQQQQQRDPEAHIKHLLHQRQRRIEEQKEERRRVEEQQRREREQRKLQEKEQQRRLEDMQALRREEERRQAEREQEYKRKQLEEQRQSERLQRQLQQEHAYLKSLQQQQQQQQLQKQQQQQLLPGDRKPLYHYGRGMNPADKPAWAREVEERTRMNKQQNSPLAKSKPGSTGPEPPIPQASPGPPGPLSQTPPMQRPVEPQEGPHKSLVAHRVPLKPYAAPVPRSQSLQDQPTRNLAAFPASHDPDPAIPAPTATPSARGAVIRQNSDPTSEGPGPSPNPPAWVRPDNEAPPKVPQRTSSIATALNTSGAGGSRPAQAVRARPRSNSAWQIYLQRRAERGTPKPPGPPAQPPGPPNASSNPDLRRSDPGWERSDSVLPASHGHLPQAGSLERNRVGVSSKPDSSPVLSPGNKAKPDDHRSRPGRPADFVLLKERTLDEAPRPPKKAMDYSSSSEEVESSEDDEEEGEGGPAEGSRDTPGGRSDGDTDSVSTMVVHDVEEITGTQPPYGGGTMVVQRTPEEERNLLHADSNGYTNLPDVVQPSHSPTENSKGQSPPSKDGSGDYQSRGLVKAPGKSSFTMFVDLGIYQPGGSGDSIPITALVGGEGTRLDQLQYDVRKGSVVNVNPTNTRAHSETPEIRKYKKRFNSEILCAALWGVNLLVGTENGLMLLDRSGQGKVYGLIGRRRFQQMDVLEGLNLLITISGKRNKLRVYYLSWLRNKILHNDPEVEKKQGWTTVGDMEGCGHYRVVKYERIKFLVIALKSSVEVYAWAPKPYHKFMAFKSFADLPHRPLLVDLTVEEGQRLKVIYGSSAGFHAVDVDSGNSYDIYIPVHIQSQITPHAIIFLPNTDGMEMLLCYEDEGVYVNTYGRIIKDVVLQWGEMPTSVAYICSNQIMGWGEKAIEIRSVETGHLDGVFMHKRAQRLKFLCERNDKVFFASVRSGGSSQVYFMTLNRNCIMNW

TAOK2 = molecular target: T5, TAOK2 (Homo sapiens, UniProt Q9UL54); design: method as in Bollag et al., 2010; settings: ref Bollag et al., 2010; read-out: Published biochemical IC50; cited from earlier work
T5 construct: purchased KINOMEscan (DiscoveRx), San Diego, CA
T5 sequence (Q9UL54 1-1235): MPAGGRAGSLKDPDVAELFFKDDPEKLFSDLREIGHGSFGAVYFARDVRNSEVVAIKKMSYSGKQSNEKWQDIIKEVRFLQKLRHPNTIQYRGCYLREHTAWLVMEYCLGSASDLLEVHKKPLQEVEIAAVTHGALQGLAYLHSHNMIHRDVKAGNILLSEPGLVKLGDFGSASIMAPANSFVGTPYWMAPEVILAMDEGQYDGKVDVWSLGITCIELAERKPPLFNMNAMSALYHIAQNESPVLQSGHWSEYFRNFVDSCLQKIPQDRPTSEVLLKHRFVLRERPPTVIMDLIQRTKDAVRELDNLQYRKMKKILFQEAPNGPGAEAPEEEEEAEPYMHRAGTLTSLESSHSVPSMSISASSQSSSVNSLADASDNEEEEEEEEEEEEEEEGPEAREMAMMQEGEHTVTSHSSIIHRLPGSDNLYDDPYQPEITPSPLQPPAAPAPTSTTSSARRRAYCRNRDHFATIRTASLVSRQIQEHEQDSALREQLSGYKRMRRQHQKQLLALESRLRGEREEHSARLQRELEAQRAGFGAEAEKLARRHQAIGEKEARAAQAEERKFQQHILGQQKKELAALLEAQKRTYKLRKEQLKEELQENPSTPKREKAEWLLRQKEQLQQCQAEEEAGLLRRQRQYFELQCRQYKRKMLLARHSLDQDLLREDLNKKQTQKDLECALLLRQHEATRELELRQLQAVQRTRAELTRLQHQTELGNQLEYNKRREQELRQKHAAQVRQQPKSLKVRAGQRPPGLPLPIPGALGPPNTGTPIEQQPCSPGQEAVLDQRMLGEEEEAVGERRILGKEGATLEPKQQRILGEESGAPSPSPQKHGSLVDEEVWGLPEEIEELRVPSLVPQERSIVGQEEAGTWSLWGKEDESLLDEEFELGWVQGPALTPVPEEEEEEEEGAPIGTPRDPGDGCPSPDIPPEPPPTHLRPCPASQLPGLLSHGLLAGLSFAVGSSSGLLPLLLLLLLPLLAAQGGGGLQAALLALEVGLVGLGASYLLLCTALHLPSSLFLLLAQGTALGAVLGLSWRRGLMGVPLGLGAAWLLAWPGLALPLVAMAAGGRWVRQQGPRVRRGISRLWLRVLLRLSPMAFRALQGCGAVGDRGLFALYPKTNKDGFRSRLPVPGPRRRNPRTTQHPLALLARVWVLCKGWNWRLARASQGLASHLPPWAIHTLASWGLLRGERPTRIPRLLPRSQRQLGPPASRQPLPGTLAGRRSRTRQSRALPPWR

[4] = 960 mg PO BID, ref Flaherty et al., 2010; cited from earlier work

Compound	suppression of UV-induced apoptosis (SRB1 cells)	suppression of UV-induced apoptosis (SRB12 cells)	proliferation of SRB12 and HaCaT cells ([1]; 1 μM, at least 28 days)	proliferation, all cells ([1]; 5 μM, at least 28 days)	proliferative advantage ([1]; cells without oncogenic RAS or BRAF mutations)	UV-induced phospho-JNK levels (phospho-JNK)	colony formation [2]	growth of A375 and WM35 cells [3]	IC50 (MST1 (STK4)) [nM]	GI50 (A375 melanoma cell line) [nM]	IC50 (human full-length ZAK; MBP substrate, ATP 2.5 μM, read-out: biochemical IC50) [nM]	remaining activity at 1 µM (human full-length ZAK; at 1 μM, read-out: residual activity) [%]	IC50 (FGR) [nM]	IC50 (MINK (MINK1)) [nM]	IC50 (TAOK2) [nM]	mean sustained serum levels [4] [µM]
CCCS(=O)(=O)Nc1ccc(F)c(C(=O)c2c[nH]c3ncc(Cl)cc23)c1F [PLX4720]	at least 70%	at least 70%	slight decrement in the proliferation	decreased proliferation	no significant proliferative advantage	significantly suppressed; also recorded: potently suppresses	significant colony formation advantage	suppress the growth	> 5000	500	–	–	–	–	–	–
CCCS(=O)(=O)Nc1ccc(F)c(C(=O)c2c[nH]c3ncc(-c4ccc(Cl)cc4)cc23)c1F [vemurafenib]	–	–	–	–	–	–	–	–	–	–	187 ± 5	18.9 ± 0.5	63	> 1000	> 1000	86
